Measurements reported in US20160263131A1, “TREATMENT OF HEPATIC FIBROSIS USING AN INHIBITOR OF CBP/CATENIN” (priority 2013, published 2016).

Assays:
NASH mice [1] = experiment: Sirius red staining, fibrosis area in liver of NASH mice; type: in vivo, C57BL/6J mice; conditions: NASH mice, 10 mg/kg oral QD 9-12 wks, 12 weeks of age, mean ± SD, n = 8; Disease-control 1.09 ± 0.27; significantly decreased; 10 mg/kg
Procedure: C57BL/6J mice (15-day pregnant female) were obtained from Charles River Laboratories Japan (Kanagawa, Japan). All animals used in this study were housed and cared for in accordance with the Japanese Pharmacological Society Guidelines for Animal Use. The animals were maintained in a SPF facility under controlled conditions of temperature (23±2° C.), humidity (45±10%), lighting (12-hour artificial light and dark cycles; light from 8:00 to 20:00) and air exchange. A high pressure (20±4 Pa) was maintained in the experimental room to prevent contamination of the facility. The animals were housed in polycarbonate cages KN-600 (Natsume Seisakusho, Japan) with a maximum of 4 mice per cage. Sterilized PULMASμ (Material Research Center, Japan) was used for bedding and replaced once a week. Sterilized solid HFD was provided ad libitum, being placed in the metal lid on top of the cage. Pure water was provided ad libitum from a water bottle equipped with a rubber stopper and a sipper tube. Water bottles were replaced once a week, cleaned and sterilized in autoclave and reused. Mice were identified by numbers engraved on earrings. Each cage was labeled with a specific identification code.

[2] = Body weight and general condition of NASH mice; conditions: mouse, in vivo
Procedure: (§1) The viability, clinical signs and behavior were monitored daily. Body weight was recorded daily before drug administration. […] The animals were sacrificed by exsanguination through direct cardiac puncture under ether anesthesia (Wako Pure Chemical Industries).

NASH mice [3] = experiment: Liver weight and liver-to-body weight ratio in NASH mice; type: in vivo, C57BL/6J mice; conditions: 10 mg/kg oral QD 9-12 wks, mean±SD
Procedure: as §1

NASH mice [4] = experiment: Whole blood glucose in NASH mice; type: in vivo, C57BL/6J mice; conditions: 10 mg/kg oral QD 9-12 wks, mean±SD, Disease-control 682±63, significantly increased
Procedure: (§2) Non-fasting blood glucose was measured in whole blood using Life Check (EIDIA, Japan). For serum biochemistry, blood was collected in polypropylene tubes without anticoagulant and kept at room temperature for 30 minutes, followed by at 4° C. for 1 hour. The blood samples were then centrifuged at 1,000×g for 15 minutes at 4° C. The supernatant was collected and stored at −80° C. until use. Serum ALT and TG levels were measured by FUJI DRI-CHEM 7000 (Fujifilm, Japan).

NASH mice [5] = experiment: Serum ALT in NASH mice; type: in vivo, C57BL/6J mice; conditions: 10 mg/kg oral QD 9-12 wks, mean±SD, Disease-control 38±8, no significant difference
Procedure: as §2

NASH mice [6] = experiment: Serum TG in NASH mice; type: in vivo, C57BL/6J mice; conditions: 10 mg/kg oral QD 9-12 wks, mean±SD, Disease-control 558±256, no significant difference
Procedure: as §2

NASH mice [7] = experiment: Liver hydroxyproline content in NASH mice; type: in vivo, C57BL/6J mice; conditions: μg per mg total protein, 10 mg/kg oral QD 9-12 wks, mean±SD, Disease-control 1.09±0.42, no significant difference
Procedure: To quantify liver hydroxyproline content, frozen liver samples (35-45 mg) were processed by an alkaline-acid hydrolysis method as follows: the livers were defatted with 100% acetone, dried in the air, dissolved in 2N NaOH at 65° C., and autoclaved at 121° C. for 20 minutes. The lysed samples (400 μL) were acid-hydrolyzed with 400 μL of 6N HCl at 121° C. for 20 minutes, and neutralized with 400 μL of 4N NaOH containing 10 mg/mL activated carbon. AC buffer (2.2M acetic acid/0.48M citric acid, 400 μL) was added to the samples, followed by centrifugation to collect the supernatant. To construct a standard curve of hydroxyproline, serial dilutions of trans-4-hydroxy-Lproline (Sigma-Aldrich) were prepared starting at 16 μg/mL. The prepared samples and standards (each 400 μL) were mixed with 400 μL chloramine T solution (Wako Pure Chemical Industries, Japan) and incubated for 25 minutes at room temperature. The samples were then mixed with Ehrlich's solution (400 μL) and heated at 65° C. for 20 minutes to develop the color. After samples were cooled on ice and centrifuged to remove precipitates, the optical density of each supernatant was measured at 560 nm. The concentrations of hydroxyproline were calculated from the hydroxyproline standard curve. Protein concentrations of liver samples were determined using a BCA protein assay kit (Thermo Fisher Scientific, USA) and used to normalize the calculated hydroxyproline values. Hydroxyproline levels were expressed as μg per mg total protein.

NASH mice [8] = experiment: Liver TG content in NASH mice; type: in vivo, C57BL/6J mice; conditions: 10 mg/kg oral QD 9-12 wks, mean±SD, Disease-control 67.7±17.7, significant decrease
Procedure: Liver total lipid-extracts were obtained from right lobes by Folch's method (Folch J. et al, J. Biol. Chem. 1957; 226 (1): 497). The livers were homogenized in chloroform-methanol (2:1, v/v) and incubated overnight at room temperature. After washing with chloroform-methanol-water (8:4:3, v/v/v), the extracts were evaporated to dryness, and dissolved in isopropanol. Liver TG levels were measured by Triglyceride E-test (Wako Pure Chemical Industries). Extracts were diluted 2- to 4-fold in isopropanol when the TG contents exceed the limit of detection.

TIMP-1 = experiment: Quantitative RT-PCR of liver, TIMP-1 mRNA, NASH mice; type: in vivo, C57BL/6J mice; conditions: 10 mg/kg oral QD 9-12 wks, 12 weeks of age, mean ± SD, n = 8, Normal 1.00 ± 0.25, Disease-control 7.04 ± 2.13, tended to be down-regulated, 10 mg/kg
Procedure: (§3) Total RNA was extracted from liver samples using RNAiso (Takara Bio, Japan) according to the manufacturer's instructions. One μg of RNA was reverse-transcribed using a reaction mixture containing 4.4 mM MgCl2 (Roche, Switzerland), 40 U RNase inhibitor (Toyobo, Japan), 0.5 mM dNTP (Promega, USA), 6.28 μM random hexamer (Promega), 5× first strand buffer (Promega), 10 mM dithiothreitol (Invitrogen, USA) and 200 U MMLV-RT (Invitrogen) in a final volume of 20 μL. The reaction was carried out for 1 hour at 37° C., followed by 5 minutes at 99° C. Real-time PCR was performed using real-time PCR DICE and SYBR premix Taq (Takara Bio). To calculate the relative mRNA expression level, the expression of each gene was normalized to that of reference gene 36B4 (gene symbol: Rplp0). Information of PCR-primer sets and the plate layout was described in Table 1.

α-SMA = experiment: Quantitative RT-PCR of liver, α-SMA mRNA, NASH mice; type: in vivo, C57BL/6J mice; conditions: 10 mg/kg oral QD 9-12 wks, 12 weeks of age, mean ± SD, n = 8, Normal 1.00 ± 0.60, Disease-control 2.43 ± 1.33, no significant difference, 10 mg/kg
Procedure: as §3

Collagen Type 3 = experiment: Quantitative RT-PCR of liver, Collagen Type 3 mRNA, NASH mice; type: in vivo, C57BL/6J mice; conditions: 10 mg/kg oral QD 9-12 wks, 12 weeks of age, mean ± SD, n = 8, Normal 1.00 ± 0.16, Disease-control 2.27 ± 0.35, tended to be down-regulated, 10 mg/kg
Procedure: as §3

NASH mice [9] = experiment: HE staining and NAFLD Activity score in NASH mice; conditions: 10 mg/kg oral QD 9-12 wks, compared with Disease-control group
Procedure: NASH was induced in 40 male mice by a single subcutaneous injection of 200 μg streptozotocin (Sigma-Aldrich, USA) 2 days after birth and feeding with high fat diet (HFD, 57 kcal % fat, cat# HFD32, CLEA Japan, Japan) after 4 weeks of age. The mice were randomized into 5 groups of 8 mice at 9 weeks of age. Eight male littermates, fed with normal diet (cat# CE-2, CLEA Japan) without streptozotocin treatment, were used for the Normal group.
The test substance solution was filled in the osmotic pumps at concentrations determined based on the individual body weight at the start of treatment (day 0). Telmisartan was administered by oral route in a volume of 10 mL/kg body weight.
Telmisartan was administered once daily at a dose of 10 mg/kg body weight.
For HE staining, sections were cut from paraffin blocks of liver tissue prefixed in Bouin's solution and stained with Lillie-Mayer's Hematoxylin (Muto Pure Chemicals, Japan) and eosin solution (Wako Pure Chemical Industries).

CCCc1nc2c(C)cc(-c3nc4ccccc4n3C)cc2n1Cc1ccc(-c2ccccc2C(=O)O)cc1 [Telmisartan, reference compound]
Sirius red-positive area (fibrosis area) (NASH mice [1]): 0.50±0.10% | General condition [2]: No deterioration | Liver-to-body weight ratio (NASH mice [3]; Disease-control 8.1±0.6, significant decrease): 6.9±0.7% | Mean liver weight (NASH mice [3]; Disease-control 1867±183, significant decrease): 1376 ± 80 mg | Whole blood glucose (non-fasting) (NASH mice [4]): 880 ± 39 mg/dL | Serum ALT (NASH mice [5]): 35±6 U/L | Serum TG (NASH mice [6]): 843 ± 609 mg/dL | Liver hydroxyproline content (NASH mice [7]): 0.95 ± 0.25 µg/mg | Liver TG content (NASH mice [8]): 30.6 ± 5.6 mg/g | TIMP-1 mRNA expression level (relative, normalized to 36B4) (TIMP-1): 4.10±1.18 | α-SMA mRNA expression level (relative, normalized to 36B4) (α-SMA): 1.83±0.36 | Collagen Type 3 mRNA expression level (relative, normalized to 36B4) (Collagen Type 3): 1.73±0.33 | HE-stained liver sections: fat deposition, hepatocellular ballooning and inflammatory cell infiltration (NASH mice [9]): marked improvements
